The values that follow come from patent US6406859B1 (Synaptic Pharmaceutical Corporation, priority 1992, dated 2002).

Like-named read-outs stand apart in the source and are kept apart here.

Experiment [1] addresses T1, 5-HT1F receptor (Homo sapiens, UniProt P30939).
T1 sequence (P30939 1-366): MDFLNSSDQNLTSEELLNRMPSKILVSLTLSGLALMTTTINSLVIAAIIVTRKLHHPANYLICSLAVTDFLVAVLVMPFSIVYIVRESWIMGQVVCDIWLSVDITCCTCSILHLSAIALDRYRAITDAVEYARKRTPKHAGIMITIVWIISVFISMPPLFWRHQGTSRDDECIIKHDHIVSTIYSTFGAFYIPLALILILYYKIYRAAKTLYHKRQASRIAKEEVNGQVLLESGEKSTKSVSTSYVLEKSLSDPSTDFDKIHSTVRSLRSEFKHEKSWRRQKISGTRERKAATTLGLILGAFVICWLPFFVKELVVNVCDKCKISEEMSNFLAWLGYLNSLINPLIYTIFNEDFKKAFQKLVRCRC
Protocol: (§1) The antagonist Kb was estimated by method of Furchgott (32): Kb=(Dose of antagonist)/((E50 in the presence of antagonist/control E50) −1).
(§2) Transfected NIH3T3 cells (estimated Bmax from one point competition studies=486 fmol/mg of protein) were incubated in DMEM, 5 mM theophylline, 10 mM Hepes (4-[2-Hydroxyethyl]-1-piperazineethanesulfonic acid), 10 μM pargyline, for 20 minutes at 37° C., CO2. Drug dose-effect curves were then conducted by adding 6 different final concentrations of drug, followed immediately by the addition of forskolin (10 μM). Subsequently, the cells were incubated for an additional 10 minutes at 37° C., 5% CO2. The media was aspirated and the reaction terminated by the addition of 100 mM HCl. The plates were stored at 4° C. for 15 minutes and centrifuged for 5 minutes (500×g at 4° C.) to pellet cellular debris. Aliquots of the supernatant fraction were then stored at −20° C. prior to assessment of cAMP formation by radioimmunoassay (cAMP Radioimmunoassay kit, Advanced Magnetics, Cambridge, Mass.).

Experiment [2] addresses T1, 5-HT1F receptor. The experiment in a line: [3H]5-HT displacement binding to clonal 5-HT1F cell membranes (transfected Ltk- cells). Set-up: The entire coding region of clone hl16a was cloned into the eukaryotic expression vector pcEXV-3; expressed in transfected cells. As to conditions: for affinity for 5-HT1F receptor in words: displacement of [3H]5-HT specific binding.
Protocol: Stable cell lines were obtained by cotransfection with the plasmid pcEXV-3 (containing the 5-HT1F receptor gene) and the plasmid pGCcos3neo (containing the aminoglycoside transferase gene) into Ltk^− cells or NIH3T3 cells using calcium phosphate (reagents obtained from Specialty Media, Lavellette, N.J.). The cells were grown in a controlled environment (37° C. 5% CO2) an monolayers in Dulbecco's modified Eagle medium (Gibco, Grand Island, N.Y.) containing 25 mM glucose and supplemented with 10% bovine calf serum, 100 U/ml penicillin G and 100 μg/ml streptomycin sulfate.
(§3) Membrane Preparation: Membranes were prepared from transfected Ltk^− cells which were grown to 100% confluency. The cells were washed twice with phosphate-buffered saline, scraped from the culture dishes into 5 ml of ice-cold phosphate-buffered saline, and centrifuged at 200×g for 5 min at 4°. The pellet was resuspended in 2.5 ml of ice-cold Tris buffer (20 mM Tris-HCl, pH 7.4 at 23°, 5 mM EDTA) and homogenized by a Wheaton tissue grinder. The lysate was subsequently centrifuged at 200×g for 5 min at 4° to pellet large fragments which were discarded. The supernatant was collected and centrifuged at 40,000×g for 20 min at 4°. The pellet resulting from this centrifugation was washed once in ice-cold Tris wash buffer and finally resuspended in a final buffer containing 50 mM Tris-HCl and 0.5 mM EDTA, pH 7.4 at 23°. Membrane preparations were kept on ice and utilized within two hours for the radioligand binding assays.
The binding profile of drugs in competition experiments was accomplished using 10-12 concentrations of compound. Incubation times were 30 min for both saturation and displacement studies based upon initial investigations which determined equilibrium binding conditions. […] Binding was initiated by the addition of 50 μl membrane homogenates (10-20 μg). […] All experiments were performed in triplicate.

The target in another experiment is 5-HT1E receptor (Homo sapiens, UniProt P28566). As to conditions: U.S. Ser. No. 803,626; cited from earlier work.
5-HT1E receptor, sequence (P28566 whole entry): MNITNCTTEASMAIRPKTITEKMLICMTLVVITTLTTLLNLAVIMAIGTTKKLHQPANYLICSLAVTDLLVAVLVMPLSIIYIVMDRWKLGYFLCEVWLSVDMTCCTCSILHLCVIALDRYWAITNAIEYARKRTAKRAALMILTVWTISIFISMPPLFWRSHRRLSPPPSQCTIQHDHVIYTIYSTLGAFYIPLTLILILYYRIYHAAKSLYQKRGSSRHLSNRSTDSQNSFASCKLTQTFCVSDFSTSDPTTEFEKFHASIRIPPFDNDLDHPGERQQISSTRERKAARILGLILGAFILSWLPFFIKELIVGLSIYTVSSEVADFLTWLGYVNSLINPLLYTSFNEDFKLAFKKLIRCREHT
For experiment [3], the target named is T1, 5-HT1F receptor. The experiment is described as follows: Coupling to PI turnover. In kind it is cell-based. The arrangement: The entire coding region of clone hl16a was cloned into the eukaryotic expression vector pcEXV-3; expressed in transfected cells. As to conditions: dose of 10 μM.
Another experiment concerns human 5-HT1F receptor. The experiment is described as follows: Inhibition of [3H]5-HT specific binding by Gpp(NH)p (G-protein coupling). To be noted: mean ± S.E.M., n=3.
The test system of a further experiment is dog saphenous vein. As to conditions: cited from earlier work.
Experiment [4] has as its target T1, 5-HT1F receptor. The experiment in a line: cell-based.
Protocol: as §1, §2
The mark [5] stands for this setting: read-out: Ki (nM) for the inhibition of [3H]5-HT specific binding, 4.5-5.5 nM [3H]5-HT, 10-12 drug concentrations, Cheng-Prusoff from IC50, mean ± S.E.M. of 2-4 determinations.
The mark [6] stands for this setting: read-out: Ki (nM) for the inhibition of [3H]5-HT specific binding.

Protocol for human 5-HT1F receptor: as §3
The binding profile of drugs in competition experiments was accomplished using 10-12 concentrations of compound. Incubation times were 30 min for both saturation and displacement studies based upon initial investigations which determined equilibrium binding conditions. […] Binding was initiated by the addition of 50 μl membrane homogenates (10-20 μg). […] IC50 values were converted to K1 values using the Cheng-Prusoff equation (1973). All experiments were performed in triplicate.

As to `c1ccc2c(N3CCNCC3)cccc2c1` [1-Napthylpiperazine], at 5-HT1F receptor [1] (read-out: EC50 for decrease in forskolin-stimulated cAMP production), the concentration for a half-maximal effect (EC50) (as a rule, the midpoint of the concentration-response curve) came to 4.5 ± 0.2 nM. Also, the Ki at 5-HT1F receptor [2] (unit inferred, read-out: K1) stood at 54 nM.

`Cc1[nH]c2ccc(O)cc2c1CCN` [2-Methyl-5-HT]: at 5-HT1F receptor [2] (setting [5]), the Ki was determined as 413 ± 5.6 nM.

`NCCc1c[nH]c2ccc(OCc3ccccc3)cc12` [5-Benzoxytryptamine] came in with a Ki at 5-HT1F receptor [2] of 1490 nM.

Consider `NCCc1c[nH]c2ccc(C(N)=O)cc12` [5-CT, 5-carboxyamidotryptamine], for which, on 5-HT1E receptor, the “affinity for 5-HT1E receptor in words” value is given as “low affinity”. Moreover, the “affinity for 5-HT1F receptor in words” value on 5-HT1F receptor [2] is recorded as “low affinity”; at 5-HT1F receptor [2] (listed as 5-carboxyamidotryptamine) it was “significantly decreases the affinity”. For the same compound, the Ki at 5-HT1F receptor [2] (setting [6]) is 717 ± 71 nM. At 5-HT1F receptor [2], `NCCc1c[nH]c2ccc(F)cc12` [5-Fluorotryptamine] displayed a Ki of 1810 nM.

As for `NCCc1c[nH]c2ccc(O)cc12` [5-HT, 5-hydroxytryptamine], on 5-HT1F receptor [1] (forskolin 10 μM), the “maximum inhibition of cAMP production” value is on record as 67±5.4%. For the same compound, at 5-HT1F receptor [3], the “coupling to PI turnover” value is “no evidence for coupling of this receptor to PI turnover was detected”. Besides, on 5-HT1F receptor [2], the “affinity for 5-HT1F receptor in words” value is recorded as “highest affinity”. `COc1ccc2[nH]cc(CCN)c2c1` [5-MT, 5-methoxytryptamine]: at 5-HT1F receptor [2], the Ki came out at 1120 nM and the “affinity for 5-HT1F receptor in words” value is given as “significantly decreases the affinity”. Take `COc1ccc2[nH]cc(CCN(C)C)c2c1` [5-Methoxy-N,N-DMT, 5-methoxy-N,N-dimethyltryptamine]: on 5-HT1F receptor [2], the Ki amounted to 37.5 ± 1.5 nM and the “affinity for 5-HT1F receptor in words” value is “affinity much higher than the other 5-substituted tryptamine derivatives”.

On to `CCCN(CCC)C1CCc2cccc(O)c2C1` (stereo not shown) [8-OH-DPAT], for which the “affinity for 5-HT1F receptor in words” value at 5-HT1F receptor [2] is “very poor affinity”. Moreover, the Ki on 5-HT1F receptor [2] (setting [6]) came to 1770 nM.

Turning to `COc1cc(CC(C)N)c(OC)cc1I` (stereo not shown) [DOI], the “affinity for 5-HT1F receptor in words” value on 5-HT1F receptor [2] was “very poor affinity”. Besides, the Ki at 5-HT1F receptor [2] (setting [6]) worked out at 1740 nM. As to `CCCN(CCC)CCc1c[nH]c2ccc(C(N)=O)cc12` [DP-5-CT], the Ki at 5-HT1F receptor [2] (setting [6]) turned out to be 1610 nM. At 5-HT1F receptor [2], `CN1C[C@H](C(=O)N[C@]2(C)O[C@@]3(O)[C@@H]4CCCN4C(=O)[C@H](Cc4ccccc4)N3C2=O)C[C@@H]2c3cccc4[nH]cc(c34)C[C@H]21` [Dihydroergotamine] registered a Ki of 276 ± 49 nM. At 5-HT1F receptor [2], `C[C@@H](CO)NC(=O)[C@@H]1C=C2c3cccc4[nH]cc(c34)C[C@H]2N(C)C1` [Ergonovine] came in with a Ki of 31 ± 1.5 nM.

`CN1C[C@H](C(=O)N[C@]2(C)O[C@@]3(O)[C@@H]4CCCN4C(=O)[C@H](Cc4ccccc4)N3C2=O)C=C2c3cccc4[nH]cc(c34)C[C@H]21` [Ergotamine]: the Ki on 5-HT1F receptor [2] (setting [5]) was found to be 171 ± 28 nM.

As to `Nc1nc2c(ncn2[C@@H]2O[C@H](COP(=O)(O)OP(=O)(O)NP(=O)(O)O)[C@@H](O)[C@H]2O)c(=O)[nH]1` [Gpp(NH)p], in the experiment with human 5-HT1F receptor, the “Imax of inhibition of [3H]5-HT specific binding” value worked out at 55.6±3.2%. On 5-HT1F receptor [2], `COc1ccc2c3c([nH]c2c1)C(C)=NCC3` [Harmaline] displayed a Ki greater than 10000 nM. As to `O=C(c1ccc(F)cc1)C1CCN(CCn2c(=O)[nH]c3ccccc3c2=O)CC1` [Ketanserin], at 5-HT1F receptor [2], the Ki is greater than 10000 nM and the “affinity for 5-HT1F receptor in words” value was “very poor affinity”.

On 5-HT1F receptor [2], `COc1ccc2[nH]cc(CCNC(C)=O)c2c1` [Melatonin] displayed a Ki greater than 10000 nM. On 5-HT1F receptor [2], `CN1C[C@@H](NS(=O)(=O)N(C)C)C[C@@H]2c3cccc4c3c(cn4C)C[C@H]21` [Mesulergine] registered a Ki greater than 10000 nM.

On to `CN1C[C@H](CNC(=O)OCc2ccccc2)C[C@@H]2c3cccc4c3c(cn4C)C[C@H]21` [Metergoline], for which, in the experiment with dog saphenous vein, the “block of the effects of sumatriptan” value is given as “does not block the effects of sumatriptan”. Further, the Ki on 5-HT1F receptor [2] (setting [5]) worked out at 341 ± 71 nM. Turning to `CSc1ccc2c(c1)C(N1CCN(C)CC1)Cc1ccccc1S2` (stereo not shown) [Methiothepin], the “blockade of functional 5-HT response” value at 5-HT1F receptor [1] (5-HT 1 μM, antagonist 10 μM) is “completely blocked”. The nature of antagonism result at 5-HT1F receptor [1] (FIG. 3, 5-HT curves with and without antagonist) is “surmountable”. For the same compound, the “direct effect of compound on cAMP response” value at 5-HT1F receptor [1] (compound alone) was “No direct effect”. Besides, the Kd on 5-HT1F receptor [1] (read-out: apparent KD from dose shift of 5-HT concentration-effect curve, antagonist, method of Furchgott (FIG. 3)) amounted to 438 ± 14 nM. Also, the Ki at 5-HT1F receptor [2] (setting [5]) turned out to be 652 ± 41 nM. `CC[C@@H](CO)NC(=O)[C@@H]1C=C2c3cccc4[nH]cc(c34)C[C@H]2N(C)C1` [Methylergonovine]: at 5-HT1F receptor [2], the “affinity for 5-HT1F receptor in words” value was “high affinity”. The Ki at 5-HT1F receptor [2] (setting [5]) is 31 ± 11 nM.

`CC[C@@H](CO)NC(=O)[C@@H]1C=C2c3cccc4c3c(cn4C)C[C@H]2N(C)C1` [Methysergide]: on 5-HT1F receptor [2], the “affinity for 5-HT1F receptor in words” value is recorded as “high affinity”. In addition, the Ki on 5-HT1F receptor [2] (setting [6]) is 34 ± 4.9 nM. Consider `COc1ccccc1N1CCN(CCCCN2C(=O)c3ccccc3C2=O)CC1` [NAN 190], for which the Ki on 5-HT1F receptor [2] (setting [5]) turned out to be 203 ± 13 nM. Consider `CC(C)NCC(O)COc1cccc2[nH]ccc12` (stereo not shown) [Pindolol], for which, on 5-HT1F receptor [2], the Ki is greater than 10000 nM and the “affinity for 5-HT1F receptor in words” value is recorded as “very poor affinity”. Consider `CC(C)NCC(O)COc1cccc2ccccc12` (stereo not shown) [Propanolol], for which the Ki on 5-HT1F receptor [2] was determined as 8710 nM. For the compound `c1ccc2nc(N3CCNCC3)ccc2c1` [Quipanzine], the Ki at 5-HT1F receptor [2] (setting [6]) was found to be 4670 nM. As for `Cc1nc2sccn2c(=O)c1CCN1CCC(=C(c2ccc(F)cc2)c2ccc(F)cc2)CC1` [Ritanserin], at 5-HT1F receptor [2], the Ki is 3520 nM.

On 5-HT1F receptor [2], `CN1CCc2cc(Cl)c(O)cc2[C@@H](c2ccccc2)C1` [SCH 23390] yielded a Ki of 1490 nM. As for `O=C(CCCN1CCC2(CC1)C(=O)NCN2c1ccccc1)c1ccc(F)cc1` [Spiperone], at 5-HT1F receptor [2], the Ki was greater than 10000 nM and the “affinity for 5-HT1F receptor in words” value was “very poor affinity”. As to `FC(F)(F)c1cccc(N2CCNCC2)c1` [TFMPP], the Ki on 5-HT1F receptor [2] (setting [5]) worked out at 1000 nM. Turning to `NCCc1c[nH]c2ccccc12` [Tryptamine], the “affinity for 5-HT1F receptor in words” value on 5-HT1F receptor [2] is given as “significantly decreases the affinity”. Moreover, at 5-HT1F receptor [2] (setting [6]), the Ki was determined as 2410 nM.

With `COC(=O)[C@@H]1[C@H]2C[C@H]3c4[nH]c5ccccc5c4CCN3C[C@@H]2CC[C@@H]1O` [Yohimbine], on 5-HT1F receptor [2], the “affinity for 5-HT1F receptor in words” value is recorded as “fair affinity”. Besides, the Ki on 5-HT1F receptor [2] (setting [6]) stood at 92 ± 11 nM.

As to `COc1cc(N)c(Cl)cc1C(=O)NC1CN2CCC1CC2` (stereo not shown) [Zacopride], at 5-HT1F receptor [2], the Ki is greater than 10000 nM and the “affinity for 5-HT1F receptor in words” value is listed as “very poor affinity”.

Consider `CN1C[C@H](CO)C=C2c3cccc4[nH]cc(c34)C[C@H]21` [lysergol], for which the concentration for a half-maximal effect (EC50) at 5-HT1F receptor [4] amounted to 8.8 ± 4.3 nM. Consider `Clc1cccc(N2CCNCC2)c1` [mCPP], for which the Ki at 5-HT1F receptor [2] (setting [6]) worked out at 2020 nM.

Consider `COC(=O)[C@H]1[C@H]2C[C@H]3c4[nH]c5ccccc5c4CCN3C[C@H]2CC[C@@H]1O` [rauwolscine], for which the “affinity for 5-HT1F receptor in words” value at 5-HT1F receptor [2] was “fair affinity”. At 5-HT1F receptor [2], `CC(N)Cc1c[nH]c2ccc(O)cc12` (stereo not drawn) [α-Methyl-5-HT] registered a Ki of 184 ± 35 nM.
